One may read the IC50 as the concentration at which inhibition is half-maximal.

In patent publication US6649656B1, “Anthranilic acid derivatives” (Teijin Limited, priority 1998, dated 2003) one finds IC50, inhibition and CC50 data, which are given here for 10 compounds.

Common to all, as to format: cell-based
Assay [1] has as its system IgE antibody production from human lymphocyte. Description: Human in vitro IgE antibody production suppressing activity (lymphocyte culture with IL-4 + IL-10 + anti-CD40 antibody, sandwich ELISA). Conditions: for IC50: IgE antibody production; for inhibition at 1 µM: test drug concentration 1 μM, IL-4 + IL-10 + anti-CD40 antibody, read-out: IgE production suppressing ratio (%). As for the experimental part: (§1) The concentrations of IgE and IgG antibodies were measured by the following method according to the method described in the Journal of Immunology vol.146, pp.1836-1842, 1991 and the Journal of Immunology vol. 147, pp.8-13, 1991.
(§2) Concretely, lymphocyte was separated from the peripheral venous blood of healthy person by density gradient centrifugation. The obtained lymphocyte was washed, suspended in a culture liquid (RPMI-1640 (product of Gibco Co.)+10% heat-inactivated FCS (product of Whittaker Co.)+100 μg/ml streptomycin+100 U/ml penicillin G+2 mM L-glutamine) and cultured for a week in the presence of interleukin 4 (IL-4, product of GENZYME Co.) (0.1 μg/ml), anti-CD40 antibody (antiCD40Aab, product of BIOSOURCE Co.), clone B-B20) (2 μg/ml) and interleukin 10 (IL-10, product of GENZYME Co.) (0.2 μg/ml) in the presence or absence of the compounds of the present invention described in the Tables 10 to 15 at various concentrations as test drugs.
(§3) The culture liquid was added to the culture system, the culture was continued for additional one week, and the concentrations of IgE and IgG antibodies in the supernatant were measured by sandwich ELISA method.
(§4) The measurement by ELISA method was carried out according to the known ELISA method by using rabbit anti-human IgE(ε) antibody (product of ICN Co.) as the primary antibody and biotin.anti-human IgE monoclonal antibody (G7-26, product of PharMingen Co.) as the secondary antibody for the measurement of IgE antibody concentration and anti-human IgG monoclonal antibody (G18-145, product of PharMingen Co.) as the primary antibody and biotin-donkey anti-human IgG antibody (H+L) (product of Jackson Co.) as the secondary antibody for the measurement of IgG antibody concentration, and using avidin-biotin-hourse radish peroxidase (ABC kit, product of Vector Lab.) as the enzyme and TMB (3,3′,5,5′-tetramethylbenzidine) microwell peroxidase substrate system (product of Kirkegaard & Perry Laboratories Inc.) as the substrate.
(§5) The value of IC50 and the suppressing ratio (%) at the test drug concentration of 1 μM were calculated based on the concentration attained in the absence of the compound of the present invention (reference: Ueshimna, et al. American Academy of Allergy & Immunology, 1995 Annual Meeting, Program No.818).

Assay [2] relates to IgG antibody production from human lymphocyte. As to the kind of experiment: Human in vitro IgG antibody production (same lymphocyte culture, sandwich ELISA). Conditions: for inhibition at 1 µM: Homo sapiens, Lymphocyte, test drug concentration 1 μM, IL-4 + IL-10 + anti-CD40 antibody, read-out: IgG production suppressing ratio (%); for IC50: IgG antibody production. As for the experimental part:
as §1, §2, §3, §4, §5
For orientation: An ELISA detects its analyte on a solid surface through an enzyme-linked reagent.

Assay [3] concerns L929 cells. Description: Measurement of cytotoxicity using mouse tumor cell L929 (neutral red assay). As for the experimental part: [Procedure] The cytotoxicity action on tumor cell was measured by neutral red assay (the method described in the Journal of Tissue Culture Methodology vol.9, p.7 (1984) and Toxicology Letters, vol.24, p.119 (1985)). Concretely, L929 cells (5×10^4 cells/ml, 10% FCS/RPMI) were added to the wells of a 96 well ELISA plate at a rate of 100 μL each and cultured for a night, and the testing compounds of respective measurement concentrations were dissolved in DMSO solution and added to the above cells. The culture was continued for 3 days, and 2.0 μL of Neutral Red was added to attain the final concentration of 0.01%. The mixture was incubated for 1 hour at 37° C., the supernatant of the cell culture product was removed and the residue was washed twice with 200 μL of PBS to remove excess Neutral Red. Thereafter, the dye taken into the cell was extracted by adding 100 μL of 50% ethanol-1% acetic acid aqueous solution and the amount of the dye was determined by measuring the absorbance at 490 nm. The cytotoxicity was determined at each concentration of the test compound taking the cytotoxicity free from the drug as 100%. […] Two sets of measurement were performed for each test under the same condition and the average value was used as the test result.

Where [4] appears, read: L929, 72 h, read-out: LD50 (μM).
The mark [5] stands for this setting: 72 h, cytotoxic activity against L929, neutral red assay, 3 days culture, read-out: LD50 (the source's name).

Read-outs that look alike come from different tables or passages of the source.

`O=C(Cc1ccc(Oc2ccc(OC3CCOCC3)cc2)cc1)Nc1ccccc1C(=O)O` [compound 44]: in assay [1], the IC50 turned out to be 0.221 µM and the inhibition at 1 µM was 100%. Also, in assay [2], the inhibition at 1 µM is 88.5% and inhibition was half-maximal at 0.404 µM (IC50). Further, in assay [3] (setting [4]), the CC50 came to 1.16 µM.
`CC(=O)Nc1ccc(CCOc2ccc(Oc3ccc(CC(=O)Nc4ccccc4C(=O)O)cc3)cc2)cc1` [compound 45]: the IC50 in assay [1] stood at 0.305 µM; in assay [2] it was 0.631 µM. Also, the inhibition at 1 µM in assay [1] is 99.4%; in assay [2], -179%. For the same compound, in assay [3] (setting [5]), the CC50 turned out to be 0.22 µM.
Consider `COC(=O)N1CCC(Oc2ccc(Oc3ccc(CC(=O)Nc4ccccc4C(=O)O)cc3)cc2)CC1` [compound 79], for which, in assay [1], the IC50 worked out at 0.04 µM and the inhibition at 1 µM stood at 100%. Besides, in assay [2], the inhibition at 1 µM was found to be 92.4% and the IC50 is 0.489 µM. Besides, the CC50 in assay [3] (setting [4]) is 0.98 µM.
For `O=C(Cc1ccc(Oc2ccc(OC3CCC(NC(=O)c4ccc(Cl)c(Cl)c4)CC3)cc2)cc1)Nc1ccccc1C(=O)O` (stereo not shown) [compound 100], in assay [1], the concentration for half-maximal inhibition (IC50) is 0.028 µM and the inhibition at 1 µM worked out at 100%. For the same compound, in assay [2], the inhibition at 1 µM is 100% and it took 0.244 µM to reach half-maximal inhibition (IC50). For the same compound, the CC50 in assay [3] (setting [5]) is 0.95 µM.
As for `O=C(Cc1ccc(Oc2ccc(OC3CCC(NS(=O)(=O)c4ccccc4)CC3)cc2)cc1)Nc1ccccc1C(=O)O` (stereo not shown) [compound 121], in assay [1], the IC50 was found to be 0.027 µM and the inhibition at 1 µM amounted to 100%. Also, in assay [2], the inhibition at 1 µM is 77.5% and the half-maximal inhibitory concentration (IC50) was determined as 0.543 µM. In addition, the CC50 in assay [3] (setting [4]) turned out to be 1.8 µM.
Taken in the same sequence, the figures for `CC(C)(C)OC(=O)NC1CCC(Oc2ccc(Oc3ccc(CC(=O)Nc4ccccc4C(=O)O)cc3)cc2)CC1` (stereo not shown) [compound 133] were 0.042 µM, 100%, 98.2%, 0.228 µM and 0.33 µM.
Consider `O=C(Cc1ccc(Oc2ccc(OC3CCC(NC(=O)Nc4ccc(Cl)c(Cl)c4)CC3)cc2)cc1)Nc1ccccc1C(=O)O` (stereo not shown) [compound 142], for which the IC50 in assay [1] turned out to be 0.034 µM; in assay [2] it was 0.141 µM. Further, the inhibition at 1 µM stood at 100% in assay [1] and 93.7% in assay [2]. In addition, the CC50 in assay [3] (setting [5]) is 0.54 µM.
As to `O=C(Cc1ccc(Oc2ccc3cc(O[C@H]4CC[C@@H](NC(=O)c5cc(Cl)cnc5Cl)CC4)ccc3c2)cc1)Nc1ccccc1C(=O)O` [compound 351], in assay [1], the 50% inhibitory concentration (IC50) is under 0.01 µM and the inhibition at 1 µM was determined as 100%. Besides, in assay [2], the inhibition at 1 µM is 71.7% and the 50% inhibitory concentration (IC50) came out at 0.662 µM. Further, the CC50 in assay [3] (setting [5]) turned out to be 0.31 µM.
Turning to `CCCCC(=O)N[C@H]1CC[C@@H](Oc2ccc3cc(Oc4ccc(C(=O)Nc5ccccc5C(=O)O)cc4)ccc3c2)CC1` [compound 370], the IC50 in assay [1] was 0.027 µM; in assay [2], over 1 µM. The inhibition at 1 µM is 94.7% in assay [1] and -45.5% in assay [2]. For the same compound, the CC50 in assay [3] (setting [4]) was 6.8 µM.
For the compound `O=C(Cc1ccc(Oc2ccc3cc(OCCN4CCOCC4)ccc3c2)nc1)Nc1ccccc1C(=O)O` [compound 427], the 50% inhibitory concentration (IC50) is 0.04 µM in assay [1] and over 10 µM in assay [2]. Moreover, the inhibition at 1 µM was 96.4% in assay [1] and over 10% in assay [2].
